Where “and” joins values, the source holds several entries; their conditions need not be identical. Identical values can stand only once. Inconclusive results and toxic doses are left out. The calls were made as follows: active = survival T/C of 150% or more; inactive = T/C below 125% in these data.
Test system: P388 leukemia ip, CD2F1 mice, survival T/C
Assay: NCI In Vivo Anticancer Drug Screen. Data for tumor model P388 Leukemia (intraperitoneal) in CD2F1 (CDF1) mice
Conditions: endpoint: median survival time, higher = longer survival
Procedure, shortened: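 Mice carrying the transplanted tumor received test compound or vehicle. Survival was recorded in each group, and the value is the treated-group measurement divided by that of the vehicle-treated control group.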

[1] = dose: 100.0 mg/kg/injection, schedule: Q04DX003 (ip), vehicle: saline with Tween-80
[2] = dose: 200.0 mg/kg/injection, schedule: Q04DX003 (ip), vehicle: saline with Tween-80
[3] = dose: 60.0 mg/kg/injection, schedule: Q01DX005 (ip), vehicle: saline with Tween-80
[4] = dose: 120.0 mg/kg/injection, schedule: Q01DX005 (ip), vehicle: saline with Tween-80
[5] = dose: 240.0 mg/kg/injection, schedule: Q01DX005 (ip), vehicle: saline with Tween-80
[6] = dose: 50.0 mg/kg/injection, schedule: Q01DX005 (ip), vehicle: Klucel (hydroxypropylcellulose) (HPC)
[7] = dose: 100.0 mg/kg/injection, schedule: Q01DX005 (ip), vehicle: Klucel (hydroxypropylcellulose) (HPC)
[8] = dose: 200.0 mg/kg/injection, schedule: Q01DX005 (ip), vehicle: Klucel (hydroxypropylcellulose) (HPC)
[9] = dose: 25.0 mg/kg/injection, schedule: Q01DX005 (ip), vehicle: Klucel (hydroxypropylcellulose) (HPC)
[10] = dose: 50.0 mg/kg/injection, schedule: Q01DX005 (ip), vehicle: saline with Tween-80
[11] = dose: 100.0 mg/kg/injection, schedule: Q01DX005 (ip), vehicle: saline with Tween-80
[12] = dose: 200.0 mg/kg/injection, schedule: Q01DX005 (ip), vehicle: saline with Tween-80
[13] = dose: 60.0 mg/kg/injection, schedule: Q01DX005 (ip), vehicle: Klucel (hydroxypropylcellulose) (HPC)
[14] = dose: 120.0 mg/kg/injection, schedule: Q01DX005 (ip), vehicle: Klucel (hydroxypropylcellulose) (HPC)
[15] = dose: 50.0 mg/kg/injection, schedule: Q01DX009 (ip), vehicle: saline

Measured: T/C

C=CC(C)C(O)C(=O)OC (configuration not stated)
inactive: dose: 100.0 mg/kg/injection, schedule: Q01DX001 (ip), vehicle: saline with Tween-80 98 % of control | dose: 200.0 mg/kg/injection, schedule: Q01DX001 (ip), vehicle: saline with Tween-80 110 % of control | dose: 400.0 mg/kg/injection, schedule: Q01DX001 (ip), vehicle: saline with Tween-80 103 % of control

N#CSC/C(=N\Nc1ccc([N+](=O)[O-])cc1[N+](=O)[O-])c1ccccc1
inactive: dose: 50.0 mg/kg/injection, schedule: Q04DX003 (ip), vehicle: saline with Tween-80 100 % of control | [1] 95 % of control | [2] 113 % of control

CC1OC(C)(c2ccc(Cl)c(O)c2)OC1C (configuration not stated)
inactive: [3] 100 % of control | [4] 102 % of control | [5] 102 % of control

C1=CC(Cc2ccccc2)NC1 (configuration not stated)
inactive: dose: 100.0 mg/kg/injection, schedule: Q01DX001 (ip), vehicle: distilled water + alcohol 100 % of control | dose: 200.0 mg/kg/injection, schedule: Q01DX001 (ip), vehicle: distilled water + alcohol 100 % of control

Fc1ccccc1C(Nc1nc2ccccc2s1)Nc1nc2ccccc2s1
inactive: [6] 109 % of control | [7] 104 % of control | [8] 113 % of control

COc1ccc(C=NC(C)(C)CO)cc1OC
inactive: [9] 100 % of control | [6] 109 % of control | [7] 101 % of control | [8] 100 % of control

CC1C(c2ccccc2)OC(c2ccccc2)N1C (configuration not stated)
inactive: dose: 12.5 mg/kg/injection, schedule: Q01DX005 (ip), vehicle: water 93 % of control | dose: 25.0 mg/kg/injection, schedule: Q01DX005 (ip), vehicle: water 93 % of control | dose: 50.0 mg/kg/injection, schedule: Q01DX005 (ip), vehicle: water 98 % of control | dose: 100.0 mg/kg/injection, schedule: Q01DX005 (ip), vehicle: water 93 % of control | dose: 200.0 mg/kg/injection, schedule: Q01DX005 (ip), vehicle: water 98 % of control

O=c1oc2ccccc2cc1S(=O)(=O)c1ccc(Cl)cc1
inactive: [3] 91 % of control | [4] 92 % of control | [5] 91 % of control

O=C(CC1(O)C(=O)Nc2ccccc21)c1ccc(Br)cc1 (configuration not stated)
inactive: [10] 108 % of control | [11] 103 % of control | [12] 100 % of control

O=C1c2ccccc2-c2cc3ccccc3c(=O)n21
inactive: [3] 95 % of control | [4] 91 % of control | [5] 89 % of control

CC1(C)CCCC2(C)C1CCC1(C)OC(/C(=C\CO)CO)CC12 (configuration not stated)
inactive: dose: 50.0 mg/kg/injection, schedule: Q01DX009 (ip), vehicle: Klucel (hydroxypropylcellulose) (HPC) 96 % of control | dose: 100.0 mg/kg/injection, schedule: Q01DX009 (ip), vehicle: Klucel (hydroxypropylcellulose) (HPC) 86 % of control

CC(=O)c1ccc2c3c(cccc13)C(=O)OC2=O
inactive: [9] 100 % of control | [6] 100 % of control and 101 % of control | [7] 102 % of control and 97 % of control | [8] 104 % of control

O=Cc1ccc(COCCO)o1
inactive: [3] 105 % of control | [4] 102 % of control | [5] 102 % of control

CC1(C)C(=O)C2=C(Nc3ccccc3C2C(C)(C)C)c2ccccc21 (configuration not stated)
inactive: [6] 99 % of control | [7] 93 % of control | [8] 92 % of control

O=c1[nH]cnc2ccc3[nH]ncc3c12
inactive: [10] 92 % of control | [11] 94 % of control | [12] 105 % of control

CCOC(=O)CCC(=O)Oc1cccc2c1C(=O)c1c(OC(=O)CCC(=O)OCC)cccc1C2=O
inactive: [13] 91 % of control | [14] 97 % of control | dose: 240.0 mg/kg/injection, schedule: Q01DX005 (ip), vehicle: Klucel (hydroxypropylcellulose) (HPC) 91 % of control

Cc1cc(C)nc(N/N=C\c2c(Cl)cccc2Cl)n1
inactive: dose: 50.0 mg/kg/injection, schedule: Q04DX003 (ip), vehicle: Klucel (hydroxypropylcellulose) (HPC) 100 % of control | dose: 100.0 mg/kg/injection, schedule: Q04DX003 (ip), vehicle: Klucel (hydroxypropylcellulose) (HPC) 98 % of control | dose: 200.0 mg/kg/injection, schedule: Q04DX003 (ip), vehicle: Klucel (hydroxypropylcellulose) (HPC) 94 % of control

O/N=C(\CC(O)(C(F)(F)F)C(F)(F)F)c1cccs1
inactive: [1] 100 % of control | [2] 95 % of control | dose: 400.0 mg/kg/injection, schedule: Q04DX003 (ip), vehicle: saline with Tween-80 108 % of control

CCc1cc2c(c3c1C(=O)CC3)C(C)(C)CCC2
inactive: dose: 50.0 mg/kg/injection, schedule: Q01DX005 (ip), vehicle: saline + Tween-80 + alcohol 106 % of control | dose: 100.0 mg/kg/injection, schedule: Q01DX005 (ip), vehicle: saline + Tween-80 + alcohol 92 % of control | dose: 200.0 mg/kg/injection, schedule: Q01DX005 (ip), vehicle: saline + Tween-80 + alcohol 97 % of control

Cc1ccc(O)c(N=Nc2c(O)cc(S(=O)(=O)O)c3ccccc23)c1
inactive: dose: 50.0 mg/kg/injection, schedule: Q01DX009 (ip), vehicle: suspension in saline 100 % of control | dose: 100.0 mg/kg/injection, schedule: Q01DX009 (ip), vehicle: suspension in saline 95 % of control

COC(=O)[C@@H]1[C@H](O)[C@H](C)[C@H](O)[C@H](C)/C=C\C=C(C)C(=O)Nc2c(C)c(OC(C)=O)c3c(c2O)C(=O)C(C)=C2OCOC(=C23)C(C)=C[C@@](C)(O)[C@H](O)[C@@H](C)[C@H]1OC(C)=O
inactive: [15] 96 % of control | dose: 100.0 mg/kg/injection, schedule: Q01DX009 (ip), vehicle: saline 109 % of control and 96 % of control | dose: 200.0 mg/kg/injection, schedule: Q01DX009 (ip), vehicle: saline 99 % of control and 122 % of control | dose: 400.0 mg/kg/injection, schedule: Q01DX009 (ip), vehicle: saline 100 % of control

CC1(C)CC(C)(OC(=O)c2ccc([N+](=O)[O-])cc2)[N+]([O-])=N1 (configuration not stated)
inactive: dose: 12.5 mg/kg/injection, schedule: Q01DX009 (ip), vehicle: other 96 % of control | dose: 25.0 mg/kg/injection, schedule: Q01DX009 (ip), vehicle: other 100 % of control | dose: 50.0 mg/kg/injection, schedule: Q01DX009 (ip), vehicle: other 95 % of control | dose: 100.0 mg/kg/injection, schedule: Q01DX009 (ip), vehicle: other 94 % of control | dose: 200.0 mg/kg/injection, schedule: Q01DX009 (ip), vehicle: other 88 % of control

Nc1ccccc1C(=O)NCCCCCCN1CCN(c2cccc(Cl)c2)CC1
inactive: dose: 50.0 mg/kg/injection, schedule: Q01DX009 (ip), vehicle: saline with Tween-80 92 % of control | dose: 100.0 mg/kg/injection, schedule: Q01DX009 (ip), vehicle: saline with Tween-80 90 % of control | dose: 200.0 mg/kg/injection, schedule: Q01DX009 (ip), vehicle: saline with Tween-80 96 % of control

CCCCCCCCCCCCCCOCC(O)CN(CCO)CCO (configuration not stated)
inactive: dose: 12.5 mg/kg/injection, schedule: Q01DX009 (ip), vehicle: saline 105 % of control | dose: 25.0 mg/kg/injection, schedule: Q01DX009 (ip), vehicle: saline 105 % of control | [15] 88 % of control and 98 % of control

O=C1Oc2ccccc2[C@@H]2[C@H]1[C@@H]1C(=O)Oc3ccccc3[C@@H]12
inactive: [6] 97 % of control | [7] 97 % of control | [8] 100 % of control

Cc1cc2c(cc1C)NC1=C(N2)OC(c2ccc3c(c2)OCO3)C1=O (configuration not stated)
inactive: dose: 30.0 mg/kg/injection, schedule: Q01DX005 (ip), vehicle: Klucel (hydroxypropylcellulose) (HPC) 88 % of control | [13] 101 % of control and 97 % of control | [14] 100 % of control and 104 % of control
